Test: In-vitro release of diclofenac (dialysis bag, PBS, absorbance 300 nm)
Type: physicochemical
Conditions: 1 mg/ml, PBS 37° C.
Procedure: In-vitro experiment on agent release of hydrogel is designed to simulate its in-vivo effect. The 500 μg/ml latanoprost-loaded solution were added to the transwell (100 μl/well) mounted on 24-well plates, and 1.5 ml PBS was added in each well and then incubated at 37° C. The 1.5 ml PBS was collected and another 1.5 ml PBS was then replenished at each time (Days 1, 7, 14 and 28). The amount of latanoprost was analyzed by a LC-MS/MS system equipped with an electrospray ionization source. The LC-MS/MS consisted of a Sciex API 3000 tandem mass spectrometer and Agilent 1100 series LC system. Separation of latanoprost was achieved by using a Phenomenex Luna C18 column (particle size 5 um, 50 mm×4.6 mm i.d.). The mobile phase consisted of latanoprost was (A) 0.1% (v/v) formic acid and (B) acetonitrile containing 0.1% formic acid (A:B=7:3, v/v) and delivered at 0.3 ml per minute. The mass spectrometer was operated in positive mode which used multiple reaction monitoring. The precursor to produce ion transition of m/z 374.2→195.2 was monitored. In another experiment, the dialysis bags with molecular weight cut-off of 1 kD were used to retain the diclofenac-loaded hydrogel and allow the released diclofenac to permeate into the release medium (PBS). Briefly, 800 μl diclofenac-loaded hydrogel (1 mg/ml) or diclofenac only (1 mg/ml) was added to a dialysis bag. The sample-loaded dialysis bag was immersed in 30 ml of PBS at 100 rpm and 37° C. At fixed time intervals, the release medium was collected and replaced with an equal amount of PBS. According to the absorption curve of diclofenac, the diclofenac content of the each sample was analyzed by Tecan's Infinite® M 1000 spectrophotometer at the wavelength of 300 nm. […] The percentage of cumulative release at 1, 7, 14 and 28 days were 1.34±0.33, 26.80±5.40, 45.03±2.55 and 67.72±4.25%, respectively. Additives in hydrogel affect its composition, structure and may also change its drug releasing characteristics. […] The percentage of cumulative release of 1 mg/ml diclofenac only group at 5, 18, 24, 48, 75 and 140 hours was 106.08±10.48, 99.34±6.57, 106.62±13.76, 102.28±7.40, 105.75±5.76 and 112.14±7.05%.

cumulative release of diclofenac (5 hours): 106.08±10.48%
cumulative release of diclofenac (18 hours): 99.34±6.57%
cumulative release of diclofenac (24 hours): 106.62±13.76%
cumulative release of diclofenac (48 hours): 102.28±7.40%
cumulative release of diclofenac (75 hours): 105.75±5.76%
cumulative release of diclofenac (140 hours): 112.14±7.05%
Compound: O=C(O)Cc1ccccc1Nc1c(Cl)cccc1Cl [diclofenac]

From patent publication US9314446B2, “Sustained releasing pharmaceutical composition” (priority 2013, dated 2016)
